Measurements from article PMC9128806 (Journal of medicinal chemistry, 2021).

Legend:
[1] = test system: human normal bone marrow mononuclear (NBMM) cells; assay: Clonogenic assays for CFU-GM and BFU-E; assay type: cell-based; conditions: 1 μM, colonies counted after 14 days, vs control
MDM2 [2] = biological target: T1, MDM2 (Homo sapiens, UniProt Q00987); assay: Western blot, MDM2 expression in EU-1 cells; assay type: cell-based
p53, p21 and PUMA = assay: Western blot, p53 and its targets p21 and PUMA; assay type: cell-based, human; conditions: EU-1 cells; accompanying MDM2 downregulation
XIAP = assay: Western blot, XIAP expression in EU-1 cells; assay type: cell-based, human; conditions: dose-dependent
[3] = test system: ALL cell lines (EU-1 and EU-3); assay: WST cytotoxicity assay, ALL cell lines; assay type: cell-based; conditions: Homo sapiens, 48 h
[4] = test system: NB cell lines (NB-1643, SHEP1, and LA1–55N); assay: WST cytotoxicity assay, NB cell lines; assay type: cell-based; conditions: Homo sapiens, 48 h
[5] = test system: human leukemia EU-1 cell line; assay: WST antiproliferative/cytotoxicity assay, EU-1; assay type: cell-based; conditions: for fold increased potency compared to 2: para-ester replaced by acetyl or isobutyryl; for fold drop in potency, para to meta position: 16 vs 13, 17 vs 14
MDM2 [6] = biological target: T1, MDM2; assay: MDM2 binding; conditions: subsequent mechanistic studies, no data shown
[7] = mice; cited from earlier work

T1 sequence (Q00987 whole entry): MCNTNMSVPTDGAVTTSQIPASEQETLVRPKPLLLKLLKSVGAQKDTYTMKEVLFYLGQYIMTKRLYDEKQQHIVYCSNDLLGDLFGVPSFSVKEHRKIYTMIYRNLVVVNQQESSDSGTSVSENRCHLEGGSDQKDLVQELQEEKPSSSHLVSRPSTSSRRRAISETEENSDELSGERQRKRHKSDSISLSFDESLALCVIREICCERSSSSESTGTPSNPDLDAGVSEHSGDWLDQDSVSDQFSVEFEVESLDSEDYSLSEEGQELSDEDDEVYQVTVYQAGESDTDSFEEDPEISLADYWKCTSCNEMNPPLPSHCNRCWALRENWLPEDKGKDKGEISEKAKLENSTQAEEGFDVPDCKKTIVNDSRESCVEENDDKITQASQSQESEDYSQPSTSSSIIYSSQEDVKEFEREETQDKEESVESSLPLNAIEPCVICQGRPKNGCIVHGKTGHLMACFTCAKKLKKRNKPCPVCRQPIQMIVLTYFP

With `COc1cccc2c1C(=O)c1c(O)c3c(c(O)c1C2=O)C[C@@](O)(C(=O)CO)C[C@@H]3O[C@H]1C[C@H](N)[C@H](O)[C@H](C)O1` [Dox, doxorubicin] as the compound, how does the “CFU-GM and BFU-E colony numbers and size” value [1] read?
The value was “significantly reduced”.

What does the source list for `Cc1ccc(NS(=O)(=O)c2ccc3c(c2)C2OCCC2C(c2ccc(C(=O)C(C)C)cc2)N3)cc1C` (stereo not drawn) [Compound 14, N-(3,4-Dimethylphenyl)-4-(4-isobutyrylphenyl)-2,3,3a,4,5,9b-hexahydrofuro[3,2-c]quinoline-8-sulfonamide]?
time after treatment at which downregulation of MDM2 and XIAP occurred (MDM2 [2]; MDM2 and XIAP): 2 to 4 h; MDM2 expression (MDM2 [2]; dose-dependent): remarkable downregulation; p53 expression (p53, p21 and PUMA): increased expression of p53; XIAP expression (XIAP): remarkable downregulation; IC50 [3]: 300 to 400 nM; IC50 [4]: 500 to 1200 nM; fold increased potency compared to 2 [5]: approximately 4 fold

With `CC(=O)c1cccc(C2Nc3ccc(S(=O)(=O)Nc4ccc(C)c(C)c4)cc3C3OCCC23)c1` (stereo not drawn) [Compound 16, 4-(3-Acetylphenyl)-N-(3,4-dimethylphenyl)-2,3,3a,4,5,9b-hexahydrofuro[3,2-c]quinoline-8-sulfonamide] as the compound, how does the “fold drop in potency, para to meta position” value [5] read?
The value was 4 fold.

For `Cc1ccc(NS(=O)(=O)c2ccc3c(c2)C2OCCC2C(c2ccc(C(=O)C4CC4)cc2)N3)cc1C` (stereo not drawn) [Compound 22, 4-(4-(Cyclopropanecarbonyl)phenyl)-N-(3,4-dimethylphenyl)-2,3,3a,4,5,9b-hexahydrofuro[3,2-c]quinoline-8-sulfonamide], which “fold decreased potency compared to 14” value ([5]; EU-1 IC50 ratio) is on record?
The value was 10 fold.

With `Cc1ccc(N(C)S(=O)(=O)c2ccc3c(c2)C2OCCC2C(c2ccc(C(=O)C(C)C)cc2)N3C)cc1C` (stereo not drawn) [Compound 45, N-(3,4-Dimethylphenyl)-4-(4-isobutyrylphenyl)-N,5-dimethyl-2,3,3a,4,5,9b-hexahydrofuro[3,2-c]quinoline-8-sulfonamide] as the compound, how does the “fold decreased potency compared to 14” value ([5]; EU-1 IC50 ratio) read?
The value was 2 fold.

For `Cc1ccc(NS(=O)(=O)c2ccc3c(c2)C2OCCC2C(c2cccc(C(=O)C(C)C)c2)N3)cc1C` (stereo not drawn) [Compound 17, N-(3,4-Dimethylphenyl)-4-(3-isobutyrylphenyl)-2,3,3a,4,5,9b-hexahydrofuro[3,2-c]quinoline-8-sulfonamide], which “fold drop in potency, para to meta position” value [5] is on record?
The value was 7 fold.

With `Cc1ccc(N(C)S(=O)(=O)c2ccc3c(c2)C2OCCC2C(c2ccc(C(=O)C(C)C)cc2)N3)cc1C` (stereo not drawn) [Compound 46, N-(3,4-Dimethylphenyl)-4-(4-isobutyrylphenyl)-N-methyl-2,3,3a,4,5,9b-hexahydrofuro[3,2-c]quinoline-8-sulfonamide] as the compound, how does the “fold decreased potency compared to 14” value ([5]; EU-1 IC50 ratio) read?
Its value is 3 fold.

For `Cc1ccc(NS(=O)(=O)c2ccc3c(c2)C2C=CCC2C(c2ccc(C(=O)C(C)C)cc2)N3)cc1C` (stereo not drawn) [Compound 27, N-(3,4-Dimethylphenyl)-4-(4-isobutyrylphenyl)-3a,4,5,9b-tetrahydro-3H-cyclopenta[c]quinoline-8-sulfonamide], which “fold decreased potency compared to 14” value ([5]; EU-1 IC50 ratio) is on record?
Its value is 5 fold.

With `Cc1ccc(NS(=O)(=O)c2ccc3c(c2)C2OCCC2C(c2ccc(C(=O)c4ccccc4)cc2)N3)cc1C` (stereo not drawn) [Compound 26, 4-(4-Benzoylphenyl)-N-(3,4-dimethylphenyl)-2,3,3a,4,5,9b-hexahydrofuro[3,2-c]quinoline-8-sulfonamide] as the compound, how does the “fold decreased potency compared to 14” value ([5]; EU-1 IC50 ratio) read?
The value was “approximately 6 fold”.

Which “binding to the MDM2 target” value (MDM2 [6]) does the source give for `CC(=O)c1ccc(C2Nc3ccc(S(=O)(=O)Nc4ccc(C)c(C)c4)cc3C3OCCC23)cc1` (stereo not drawn) [Compound 13, 4-(4-Acetylphenyl)-N-(3,4-dimethylphenyl)-2,3,3a,4,5,9b-hexahydrofuro[3,2-c]quinoline-8-sulfonamide] here?
The value was “does not bind to the MDM2 target”.

And the “fold increased potency compared to 2” value [5]?
The value was “approximately 4 fold”.

Which “fold decreased potency compared to 14” value ([5]; EU-1 IC50 ratio) does the source give for `Cc1ccc(NS(=O)(=O)c2ccc3c(c2)C2OCCC2C(c2ccc(C(O)C(C)C)cc2)N3)cc1C` (stereo not drawn) [Compound 15, N-(3,4-Dimethylphenyl)-4-(4-(1-hydroxy-2-methylpropyl)phenyl)-2,3,3a,4,5,9b-hexahydrofuro[3,2-c]-quinoline-8-sulfonamide] here?
The value was “approximately 4 fold”.

For `Cc1ccc(NS(=O)(=O)c2ccc3c(c2Cl)C2C=CCC2C(c2ccc(S(C)(=O)=O)cc2)N3)cc1C` (stereo not drawn) [Compound 44, 9-Chloro-N-(3,4-dimethylphenyl)-4-(4-(methylsulfonyl)phenyl)-3a,4,5,9b-tetrahydro-3H-cyclopenta[c]quinolone-8-sulfonamide], which “fold less potent than parent compound 42” value ([5]; EU-1 IC50 ratio) is on record?
Its value is “approximately 6 fold”.

With `Cc1ccc(NS(=O)(=O)c2ccc3c(c2)C2C=CCC2C(c2ccc(C(=O)O)cc2)N3)cc1C` (stereo not drawn) [MX69] as the compound, how does the tolerability [7] read?
Its tolerability is “well tolerated”.

Which “fold higher potency compared to the other three isomers” value ([5]; 14d vs 14a–c) does the source give for `Cc1ccc(NS(=O)(=O)c2ccc3c(c2)[C@H]2OCC[C@H]2[C@@H](c2ccc(C(=O)C(C)C)cc2)N3)cc1C` [Compound 14d, (3aS,4S,9bS)-N-(3,4-Dimethylphenyl)-4-(4-isobutyrylphenyl)-2,3,3a,4,5,9b-hexahydrofuro[3,2-c]quinoline-8-sulfonamide] here?
The value was 5- to 8 fold.

Which “fold decreased potency compared to 14” value ([5]; EU-1 IC50 ratio) does the source give for `Cc1ccc(NS(=O)(=O)c2ccc3c(c2)C2OCCC2C(c2ccc(C(=O)C4CCCCC4)cc2)N3)cc1C` (stereo not drawn) [Compound 25, 4-(4-(Cyclohexanecarbonyl)phenyl)-N-(3,4-dimethylphenyl)-2,3,3a,4,5,9b-hexahydrofuro[3,2-c]quinoline-8-sulfonamide] here?
The value was “approximately 6 fold”.

Which “fold drop in potency compared to 27” value ([5]; saturation of cyclopentene double bond) does the source give for `Cc1ccc(NS(=O)(=O)c2ccc3c(c2)C2CCCC2C(c2ccc(C(=O)C(C)C)cc2)N3)cc1C` (stereo not drawn) [Compound 28, N-(3,4-Dimethylphenyl)-4-(4-isobutyrylphenyl)-2,3,3a,4,5,9b-hexahydro-1H-cyclopenta[c]quinoline-8-sulfonamide] here?
Its value is “approximately 3 fold”.

With `Cc1ccc(NS(=O)(=O)c2ccc3c(c2)C2NCCC2C(c2ccc(C(=O)C(C)C)cc2)N3)cc1C` (stereo not drawn) [Compound 30, N-(3,4-Dimethylphenyl)-4-(4-isobutyrylphenyl)-2,3,3a,4,5,9b-hexahydro-1H-pyrrolo[3,2-c]quinoline-8-sulfonamide] as the compound, how does the “fold decreased potency compared to 14” value ([5]; EU-1 IC50 ratio) read?
The value was 6 fold.
